Source: US5066652A, “Thiomethyl and sulfinylmethyl derivatives having gastric acid antisectetory activity and pharmaceutical compositions containing them” (Chiesi Farmaceutici S.p.A., priority 1988, dated 1991)
Like-named read-outs stand apart in the source and are kept apart here.

Assays:
[1] = tested on: secretion of hydrochloric acid in the stomach (Shay ulcers); experiment: Antisecretory activity - Shay ulcers (pylorus-ligated rat); assay type: in vivo; conditions: for Emax / ED40: Rattus norvegicus; for Emax / ED50 / ED40: 2 h; for Emax: α=1 represents 100% inhibition of gastric acid hypersecretion, read-out: α (approximate value of intrinsic activity); for ED50: rat, pylorus ligation, intraduodenal or intravenous; for PR (potency ratio in comparison with Omeprazole): ratio of mean ED50 on the 3 parameters of test compound to mean ED50 of omeprazole; for ED40: footnote 1: ED40 value
Method: Antisecretory activity--Shay ulcers The gastric secretory inhibitory activity of the compounds of general formula (I) was determined in case of hypersecretion induced in the rat by ligation of gastroduodenal junction according to the procedure described by Shay (Shay H. et al, Gasgroenterology 5, 43-61, 1945). […] Thereafter, they were fasted for 24 hours, with water ad libitum, which period was sufficient to assure a good gastric emptying, then laparectomized under light ether anesthesia, so as to allow to effect a pylorus ligation as closer as possible to the gastroduodenal junction. Two hours after the ligation, the animals were killed by means of an ether excess and stomaches were removed. Gastric contents were recovered, after filtration through a gauze, and placed in graduated test-tubes and centrifuged at 3000×g for 15 minutes. The following parameters were evaluated on the surnatant: volume (ml); pH; free acidity by conversion of pH into H^+ μEq by means of Moore table (Ann. New York Acad. Sci. 1967, 866-874); titrable acidity, by titration of an amount with 0.02N NaOH, using phenolphtalein as the indicator. […] The results were expressed as percent inhibition of hypersecretion induced by pylorus ligation in the control rats. The obtained results are reported in table 3 as: ED50 (μmol/kg) calculated on the basis of the equation of the linear tract of does-effect curves obtained with the test compounds on volume, free and titrable acidities; […]

[2] = tested on: secretion of hydrochloric acid in the stomach; experiment: Lumen-perfused rat stomach in situ (histamine-induced hypersecretion); assay type: in vivo; conditions: for ED50: histamine 35 mcg/kg/min, 3 hours
Method: Lumen-perfused rat stomach in situ The experiments were done according to Ghosh M. N. and Schild H. O. (Br. J. Pharmacol. 13, 54-61, 1958). […] After a midline abdominal incision, a PVC tube was inserted into the stomach via the esophagus and the stomach was perfused with saline (37° C.) at a rate of 1 ml/min. A second tube draining the pylorus was inserted through the abdominal wall for collection of gastric secretion. […] After equilibration of basal secretion an hypersecretion was induced by infusion of histamine 35 mcg/kg/min, through the femoral vein. […] Mean gastric output was determined for a 3 hours test period following drug administration. The last 30 minutes interval prior to dosing was used as a control. The dose-response relationship was established using the maximum inhibition obtained at each individual dose.

[3] = free acid output, read-out: ED50 free acid output
[4] = secretion volume, read-out: ED50 volume
[5] = titratable acid output, read-out: ED50 titratable acid output

Row | Structure (SMILES) | Emax [1] | ED50 [1, 3] | ED50 [1, 4] | ED50 [1, 5] | PR (potency ratio in comparison with Omeprazole) [1] | ED50 ([2]; intraduodenal, read-out: ED50 free acid output) | ED50 ([2]; intraduodenal, read-out: ED50 titratable acid output) | α (intrinsic activity) ([2]; histamine, intraduodenal) | PR = potency ratio ([2]; in comparison with omeprazole) | ED40 ([1]; free acid output, read-out: ED40 free acid output) | ED40 ([1]; secretion volume, read-out: ED40 volume) | ED40 ([1]; titratable acid output, read-out: ED40 titratable acid output)
1 | COc1c(C)cnc(C[S+]([O-])c2nccn2C)c1C (centres unmarked) [XIV, 1-methyl-2-[2'-(3' ,5 '-dimethyl-4'-methoxy)pyridylmethylsulfinyl]imidazole] | 60% | 17.1 µmol/kg | 26.7 µmol/kg | 19.2 µmol/kg | 7,6 |  |  |  |  |  |  | 
2 | CN(C)c1ccccc1CSc1nccn1-c1ccc(F)cc1 [XXX] | 100% | 9.2 µmol/kg | 21.1 µmol/kg | 11.2 µmol/kg | 5,0 |  |  |  |  |  |  | 
3 | CN(C)c1ccccc1CSc1nc2cnccc2[nH]1 [L, 2-[2'-(N,N-dimethylanilyl)methylthio]imidazo-[4,5-c]-pyridine] | 100% | 5.5 µmol/kg | 19.7 µmol/kg | 6.9 µmol/kg | 3,8 |  |  |  |  |  |  | 
4 | COc1ccnc(C[S+]([O-])c2nccn2C)c1 (centres unmarked) [XVI, 1-methyl-2-[2'-(4'-methoxypyridyl)methylsulfinyl]imidazole] | 40 to 60% | 0.3 µmol/kg | 2.3 µmol/kg | 0.3 µmol/kg | 0,3 |  |  |  |  |  |  | 
5 | COc1ccc(C)nc1C[S+]([O-])c1ncnc2[nH]cnc12 (centres unmarked) [XLVI, 6-[2'-(6'-methyl-3'-methoxypyridyl)methylsulfinyl]purine] | 100% | 33.1 µmol/kg | 52 µmol/kg | 45.8 µmol/kg | 15,8 |  |  |  |  |  |  | 
6 | Cn1ccnc1[S+]([O-])Cc1ccc2ccccc2n1 (centres unmarked) [XVIII, 1-methyl-2-(2'-quinolylmethylsulfinyl)imidazole] | 100% | 36.9 µmol/kg | 40.3 µmol/kg | 39.4 µmol/kg | 14,0 |  |  |  |  |  |  | 
7 | CN/C(=N/CCSCc1nc[nH]c1C)NC#N [Cimetidine, reference compound] | 100% | 24.1 µmol/kg | 47.3 µmol/kg | 23.9 µmol/kg | 11,5 | 11.8 µmol/kg | 11.1 µmol/kg | 1 | 5.1 |  |  | 
8 | Cn1ccnc1[S+]([O-])Cc1nc2cc(C(=O)c3ccccc3)ccc2[nH]1 (centres unmarked) [XV, 1-methyl-2-[2'-(5'-benzoyl)benzimidazolylmethylsulfinyl]imidazole] | 50 to 60% | 0.6 µmol/kg | 3 µmol/kg | 0.7 µmol/kg | 0,5 |  |  |  |  |  |  | 
9 | Cn1ccnc1SCc1ccc2ccccc2n1 [XII, 1-methyl-2-(2'-quinolylmethylthio)imidazole.2HCl] | 100% | 34.7 µmol/kg | 43.5 µmol/kg | 38.1 µmol/kg | 14,0 |  |  |  |  |  |  | 
10 | CN(C)c1ccccc1CSc1nccn1-c1ccccc1F [XXXII, 1-(2'-fluorophenyl)-2-[2'-(N,N-dimethylanilyl)methylthio]imidazole] | 100% | 25.5 µmol/kg | 34.2 µmol/kg | 23.9 µmol/kg | 10,1 |  |  |  |  |  |  | 
11 | COc1ccnc(C[S+]([O-])c2nccn2-c2cccc(F)c2)c1C (centres unmarked) [XXXVII, 1-(3'-fluorophenyl)-2-[2'-(3'-methyl-4'-methoxypyridyl)methylsulphinyl]imidazole] | 60 to 80% | 73 µmol/kg | 80 µmol/kg | 80 µmol/kg | 28,1 |  |  |  |  |  |  | 
12 | Cn1ccnc1SCc1nc2ccccc2[nH]1 [IX, 1-methyl-2-(2'-benzimidazolylmethylthio)imidazole.2HCl] | 40 to 60% | 53.2 µmol/kg | 65 µmol/kg | 24.7 µmol/kg | 17,2 |  |  |  |  |  |  | 
13 | c1ccc(-n2ccnc2SCc2ccc3ccccc3n2)cc1 [XXXVI, 1-phenyl-2-[2'-(quinolyl)methylthio]imidazole] | 60 to 70% | 50 µmol/kg | 120 µmol/kg | 80 µmol/kg | 30,1 |  |  |  |  |  |  | 
14 | c1ccc(N2CCOCC2)c(CSc2nc3cccnc3[nH]2)c1 [XLVII, 2-(2'-[1'-(4-morpholinyl)phenyl]methylthio)imidazo-[4,5-b]-pyridine] | 70 to 90% | 42.3 µmol/kg | 130 µmol/kg | 61.9 µmol/kg | 28,2 |  |  |  |  |  |  | 
15 | CN(C)c1ccccc1CSc1nccn1-c1ccccc1C(F)(F)F [XXXV, 1-(2'-trifluoromethylphenyl)-2-[2'-(N,N-dimethylanilyl)methylthio]imidazole. 2HCl] | 100% | 8.3 µmol/kg | 24.9 µmol/kg | 5 µmol/kg | 4,6 |  |  |  |  |  |  | 
16 | COc1ccccc1-n1ccnc1SCc1ccccc1N(C)C [XXXIII, 1-(2'-methoxyphenyl)-2-[2'-(N,N-dimethylanilyl)methylthio]imidazole] | 70 to 80% | 1.2 µmol/kg | 3 µmol/kg | 2 µmol/kg | 0,75 |  |  |  |  |  |  | 
17 | CN(C)c1ccccc1CSc1nc2cscc2[nH]1 [LII, 2-[2'-(N,N-dimethylanilyl)methylthio)thieno-[3,4-d]-imidazole] | 50 to 80% | 45 µmol/kg | 90 µmol/kg | 28 µmol/kg | 19,6 |  |  |  |  |  |  | 
18 | [O-][S+](Cc1nc2ccccc2[nH]1)c1nccn1-c1ccc(F)cc1 (centres unmarked) [XXXIX, 1-(4'-fluorophenyl)-2-[2'-(benzimidazolyl)methylsulfinyl]-imidazole] | 80% | 139 µmol/kg | 300 µmol/kg | 165 µmol/kg | 72,8 |  |  |  |  |  |  | 
19 | Cn1ccnc1[S+]([O-])Cc1nc2ccccc2[nH]1 (centres unmarked) [XVII, 1-methyl-2-[2'-benzimidazolylmethylsulfinyl)imidazole] | 70 to 90% | 84.4 µmol/kg | 134 µmol/kg | 109 µmol/kg | 39,7 |  |  |  |  |  |  | 
20 | CN(C)c1ccccc1CSc1nccn1-c1ccc(Cl)cc1 [XXXIV, 1-(4'-chlorophenyl)-2-[2'-(N,N-dimethylanilyl)methylthio]imidazole. 2HCl] | 100% | 6.1 µmol/kg | 24.6 µmol/kg | 1.3 µmol/kg | 3,9 |  |  |  |  |  |  | 
21 | CN(C)c1ccccc1CSc1nc2cncnc2[nH]1 [XLV, 8-[2'-(N,N-dimethylanilyl)methylthio]purine] | 100% | 17.8 µmol/kg | 31.2 µmol/kg | 19.3 µmol/kg | 8,2 |  |  |  |  |  |  | 
22 | CN(C)c1ccccc1C[S+]([O-])c1nccn1-c1ccccc1F (centres unmarked) [XLI, 1-(2'-fluorophenyl)-2-[2'-(N,N-dimethylanilyl)methylsulfinyl]imidazole] | 100% | 42.3 µmol/kg | 124 µmol/kg | 61.9 µmol/kg | 27,6 |  |  |  |  |  |  | 
23 | COc1c(C)cnc(CSc2nccn2C)c1C [VIII, 1-methyl-2-[2'-(3' ,5 '-dimethyl-4'-methoxypyridyl)methylthio]imidazole.2HCl] | 40 to 60% |  |  |  | 0,02 |  |  |  |  | 0.03 µmol/kg | 0.12 µmol/kg | 0.03 µmol/kg
24 | COc1ccnc(CSc2nccn2-c2ccccc2)c1C [XXIII, 1-phenyl-2-[2'-(3'-methyl-4'-methoxypyridyl)methylthio]imidazole] | 70% | 125 µmol/kg | 125 µmol/kg | 110 µmol/kg | 43,4 |  |  |  |  |  |  | 
25 | c1ccc2[nH]c(CSc3nc4cccnc4[nH]3)nc2c1 [XLVIII, 2-(2'-benzimidazolylmethylthio)imidazo-[4,5-b]-pyridine] | 50 to 60% | 164 µmol/kg | 522 µmol/kg | 235 µmol/kg | 110,9 |  |  |  |  |  |  | 
26 | CN(C)c1ccccc1CSc1nccn1-c1ccccc1Cl [XXXI, 1-(2'-clorophenyl)-2-[2'-(N,N-dimethylanilyl)methylthio]imidazole] | 90% | 30.1 µmol/kg | 67.2 µmol/kg | 55.1 µmol/kg | 18,4 |  |  |  |  |  |  | 
